Values after ≈ are worked out from the molar mass of the structure shown.
Assays:
MDA-MB-231 [1] = assay: Cytotoxicity against human MDA-MB-231 cells assessed as inhibition of cell growth incubated for 48 hrs by MTT assay; type: functional, cell-based; settings: MDA-MB-231, 48 h
[2] = molecular target: Vascular endothelial growth factor receptor 2 (Homo sapiens) (UniProt P35968); assay: Inhibition of VEGFR2 (unknown origin) at 20 uM using 5-FAM-KKKKEEIYFFF-CONH2 as substrate incubated for 1 hr in presence of ATP by kinase glo-assay relative to control
Vascular endothelial growth factor receptor 2 (Homo sapiens), sequence (P35968 whole entry): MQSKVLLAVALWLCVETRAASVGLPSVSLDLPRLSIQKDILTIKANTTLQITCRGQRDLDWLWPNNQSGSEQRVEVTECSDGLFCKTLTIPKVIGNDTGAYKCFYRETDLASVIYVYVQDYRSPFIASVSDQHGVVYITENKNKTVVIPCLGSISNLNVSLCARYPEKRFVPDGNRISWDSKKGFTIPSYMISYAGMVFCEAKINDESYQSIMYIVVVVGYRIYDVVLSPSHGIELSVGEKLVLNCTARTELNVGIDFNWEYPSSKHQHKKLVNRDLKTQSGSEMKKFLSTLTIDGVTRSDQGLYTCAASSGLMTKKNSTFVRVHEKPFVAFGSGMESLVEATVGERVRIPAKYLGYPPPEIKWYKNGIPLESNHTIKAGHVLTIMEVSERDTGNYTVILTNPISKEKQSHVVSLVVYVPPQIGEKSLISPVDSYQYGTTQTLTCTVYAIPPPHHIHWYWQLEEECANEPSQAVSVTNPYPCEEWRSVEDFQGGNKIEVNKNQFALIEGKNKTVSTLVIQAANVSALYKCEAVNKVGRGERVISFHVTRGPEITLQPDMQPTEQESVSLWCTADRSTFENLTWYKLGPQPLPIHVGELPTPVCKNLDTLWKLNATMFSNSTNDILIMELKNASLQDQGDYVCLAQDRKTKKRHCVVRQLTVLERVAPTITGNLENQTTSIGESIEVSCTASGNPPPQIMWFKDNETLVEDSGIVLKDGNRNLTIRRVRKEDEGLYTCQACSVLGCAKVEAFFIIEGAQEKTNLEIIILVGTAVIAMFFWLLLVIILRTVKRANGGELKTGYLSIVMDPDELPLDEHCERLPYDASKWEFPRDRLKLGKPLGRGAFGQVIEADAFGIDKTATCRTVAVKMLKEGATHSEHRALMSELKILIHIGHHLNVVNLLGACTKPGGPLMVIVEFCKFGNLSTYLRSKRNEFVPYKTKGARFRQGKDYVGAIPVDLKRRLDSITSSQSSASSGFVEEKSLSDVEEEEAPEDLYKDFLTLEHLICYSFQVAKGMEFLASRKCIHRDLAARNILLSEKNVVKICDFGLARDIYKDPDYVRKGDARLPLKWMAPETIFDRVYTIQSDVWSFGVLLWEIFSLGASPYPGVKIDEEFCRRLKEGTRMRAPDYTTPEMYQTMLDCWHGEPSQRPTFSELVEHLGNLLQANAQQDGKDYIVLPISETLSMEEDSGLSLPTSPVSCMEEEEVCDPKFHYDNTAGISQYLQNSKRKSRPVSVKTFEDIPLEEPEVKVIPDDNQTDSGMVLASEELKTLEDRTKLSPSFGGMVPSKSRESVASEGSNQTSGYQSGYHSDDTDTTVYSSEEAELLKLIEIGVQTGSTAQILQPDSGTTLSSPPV

HepG2 [3] = assay: Cytotoxicity against human HepG2 cells assessed as inhibition of cell growth incubated for 48 hrs by MTT assay; type: functional, cell-based; settings: HepG2, 48 h
[4] = Antiproliferative activity against human A375P cells; type: functional, cell-based
MCF7 [5] = assay: Cytotoxicity against human MCF7 cells; type: functional, cell-based
A549 [6] = assay: Anticancer activity against human A549 cells at 5 microg/ml relative to control; type: functional; settings: dose 5 µg/ml
HT-29 = assay: Cytotoxicity against human HT-29 cells; type: functional, cell-based
MKN-45 = assay: Cytotoxicity against human MKN-45 cells; type: functional, cell-based
NCI-H460 [7] = assay: Cytotoxicity against human NCI-H460 cells; type: functional, cell-based
[8] = Cytotoxicity against human U-87 MG cells; type: functional, cell-based, U-87MG ATCC
SMMC-7721 = assay: Cytotoxicity against human SMMC-7721 cells; type: functional, cell-based
A549 [9] = assay: Antiproliferative activity against human A549 cells; type: functional, cell-based
MCF7 [10] = assay: Antiproliferative activity against human MCF7 cells assessed as reduction in cell viability incubated for 24 hrs by Celltiter-Glo cell viability assay; type: functional, cell-based; settings: MCF7, 24 h
MV4-11 = assay: Anticancer activity against human MV4-11 cells; type: functional, cell-based
HCT-116 [11] = assay: Anticancer activity against human HCT-116 cells; type: functional, cell-based
MCF7 [12] = assay: Cytotoxicity against human MCF7 cells assessed as reduction in cell viability incubated for 48 hrs by MTT assay; type: functional
NCI-H460 [13] = assay: Cytotoxicity against human NCI-H460 cells assessed as reduction in cell viability incubated for 48 hrs by MTT assay; type: functional
[14] = molecular target: Nuclear factor NF-kappa-B complex (Homo sapiens) (UniProt Q00653+P19838+Q04206); assay: Inhibition of NF-kB (unknown origin); type: protein-complex assay
Nuclear factor NF-kappa-B complex (Homo sapiens), sequence (P19838 whole entry, looked up): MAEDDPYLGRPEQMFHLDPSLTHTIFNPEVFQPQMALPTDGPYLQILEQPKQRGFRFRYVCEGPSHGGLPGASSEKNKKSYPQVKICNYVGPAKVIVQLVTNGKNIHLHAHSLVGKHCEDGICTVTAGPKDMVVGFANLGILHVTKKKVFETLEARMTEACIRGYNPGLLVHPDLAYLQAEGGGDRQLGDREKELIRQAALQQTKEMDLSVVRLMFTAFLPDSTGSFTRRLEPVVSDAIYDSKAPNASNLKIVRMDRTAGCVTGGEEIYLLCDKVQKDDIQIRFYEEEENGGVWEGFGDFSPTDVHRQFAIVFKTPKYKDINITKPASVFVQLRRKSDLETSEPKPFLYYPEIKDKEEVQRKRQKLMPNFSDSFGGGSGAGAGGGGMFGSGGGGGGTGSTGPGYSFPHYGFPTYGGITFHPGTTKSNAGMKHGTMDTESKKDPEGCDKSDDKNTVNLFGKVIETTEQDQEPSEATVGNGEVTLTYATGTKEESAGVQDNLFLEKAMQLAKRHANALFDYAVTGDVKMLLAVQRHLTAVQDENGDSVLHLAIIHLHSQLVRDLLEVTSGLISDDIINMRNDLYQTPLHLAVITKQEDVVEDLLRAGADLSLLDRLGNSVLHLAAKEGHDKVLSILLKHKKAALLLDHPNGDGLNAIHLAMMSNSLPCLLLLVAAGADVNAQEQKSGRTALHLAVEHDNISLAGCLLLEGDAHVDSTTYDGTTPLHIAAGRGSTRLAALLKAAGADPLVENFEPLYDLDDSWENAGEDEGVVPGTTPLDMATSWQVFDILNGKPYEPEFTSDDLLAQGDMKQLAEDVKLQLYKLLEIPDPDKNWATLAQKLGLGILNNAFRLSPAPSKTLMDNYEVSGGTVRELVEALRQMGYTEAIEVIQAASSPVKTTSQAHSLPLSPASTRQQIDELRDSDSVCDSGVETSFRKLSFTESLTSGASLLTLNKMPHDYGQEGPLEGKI
Nuclear factor NF-kappa-B complex (Homo sapiens), sequence (Q00653 whole entry, looked up): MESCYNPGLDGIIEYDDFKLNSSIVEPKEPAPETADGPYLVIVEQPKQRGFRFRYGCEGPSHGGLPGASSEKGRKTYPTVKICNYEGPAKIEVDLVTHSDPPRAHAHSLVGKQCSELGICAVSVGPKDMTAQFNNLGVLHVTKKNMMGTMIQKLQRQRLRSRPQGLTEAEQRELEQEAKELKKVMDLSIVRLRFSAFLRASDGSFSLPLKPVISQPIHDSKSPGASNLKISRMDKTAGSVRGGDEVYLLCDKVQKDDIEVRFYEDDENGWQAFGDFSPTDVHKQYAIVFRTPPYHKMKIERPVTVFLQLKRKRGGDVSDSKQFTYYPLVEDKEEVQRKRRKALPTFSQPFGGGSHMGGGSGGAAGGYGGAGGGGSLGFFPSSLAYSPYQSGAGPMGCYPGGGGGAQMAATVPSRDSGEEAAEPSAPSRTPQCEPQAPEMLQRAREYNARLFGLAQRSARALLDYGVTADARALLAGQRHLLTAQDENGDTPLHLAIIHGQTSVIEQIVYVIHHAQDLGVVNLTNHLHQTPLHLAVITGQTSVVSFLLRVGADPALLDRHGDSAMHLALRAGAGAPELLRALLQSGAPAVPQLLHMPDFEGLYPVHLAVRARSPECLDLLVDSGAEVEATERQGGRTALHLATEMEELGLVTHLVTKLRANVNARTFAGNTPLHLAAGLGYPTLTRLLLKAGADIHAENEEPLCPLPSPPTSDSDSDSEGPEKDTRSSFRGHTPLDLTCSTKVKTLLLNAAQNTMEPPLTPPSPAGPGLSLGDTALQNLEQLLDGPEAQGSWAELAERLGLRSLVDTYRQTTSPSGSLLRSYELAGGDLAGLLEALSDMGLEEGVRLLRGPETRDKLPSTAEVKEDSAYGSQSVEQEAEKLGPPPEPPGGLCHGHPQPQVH
Nuclear factor NF-kappa-B complex (Homo sapiens), sequence (Q04206 whole entry, looked up): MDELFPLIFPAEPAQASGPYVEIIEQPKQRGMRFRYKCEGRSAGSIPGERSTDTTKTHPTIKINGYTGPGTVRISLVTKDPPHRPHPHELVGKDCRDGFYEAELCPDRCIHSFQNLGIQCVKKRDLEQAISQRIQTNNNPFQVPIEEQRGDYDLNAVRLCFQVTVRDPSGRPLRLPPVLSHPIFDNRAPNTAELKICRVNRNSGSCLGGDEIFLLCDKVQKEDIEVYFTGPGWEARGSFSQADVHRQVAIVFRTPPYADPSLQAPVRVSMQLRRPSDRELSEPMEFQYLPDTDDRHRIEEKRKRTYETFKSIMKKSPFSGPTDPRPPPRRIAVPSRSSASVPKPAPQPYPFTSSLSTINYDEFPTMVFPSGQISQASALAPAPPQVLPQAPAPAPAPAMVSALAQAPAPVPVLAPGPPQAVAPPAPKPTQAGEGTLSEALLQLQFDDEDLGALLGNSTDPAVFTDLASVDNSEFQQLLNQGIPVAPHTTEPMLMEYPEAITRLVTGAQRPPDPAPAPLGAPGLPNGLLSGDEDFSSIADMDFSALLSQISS

HeLa [15] = assay: Cytotoxicity against human HeLa cells; type: functional, cell-based
MG-63 = assay: Cytotoxicity against human MG-63 cells; type: functional, cell-based
[16] = Anticancer activity against human PBMC cells; type: functional, cell-based
SF-268 [17] = assay: Antitumor activity against human SF-268 cells; type: functional
A549 [18] = assay: Anticancer activity against human A549 cells; type: functional, cell-based
MCF7 [19] = assay: Anticancer activity against human MCF7 cells; type: functional, cell-based
A549 [20] = assay: Cytotoxicity against human A549 cells assessed as inhibition of cell growth by MTT assay; type: functional, cell-based
HCT-116 [21] = assay: Cytotoxicity against human HCT-116 cells assessed as reduction in cell viability by MTT assay; type: functional, cell-based
HeLa [22] = assay: Cytotoxicity against human HeLa cells assessed as reduction in cell viability by MTT assay; type: functional, cell-based
MCF7 [23] = assay: Cytotoxicity against human MCF7 cells assessed as reduction in cell viability by MTT assay; type: functional, cell-based
MDA-MB-231 [24] = assay: Cytotoxicity against human MDA-MB-231 cells assessed as reduction in cell viability by MTT assay; type: functional, cell-based
HCC 2998 = assay: Cytotoxicity against human HCC 2998 cells; type: functional
NCI-H226 = assay: Cytotoxicity against human NCI-H226 cells; type: functional
IGROV-1 = assay: Cytotoxicity against human IGROV-1 cells; type: functional
OVCAR-4 = assay: Cytotoxicity against human OVCAR-4 cells; type: functional
OVCAR-5 = assay: Cytotoxicity against human OVCAR-5 cells; type: functional
[25] = system: Panel NCI-60 (60 carcinoma cell lines); assay: Antiproliferative activity against human Panel NCI-60 (60 carcinoma cell lines) assessed as cell growth inhibition; type: functional
SF-268 [26] = assay: Cytotoxicity against human SF-268 cells assessed as reduction in cell viability by MTS assay; type: functional
NCI-H460 [27] = assay: Cytotoxicity against human NCI-H460 cells assessed as reduction in cell viability by MTS assay; type: functional
MCF7 [28] = assay: Cytotoxicity against human MCF7 cells assessed as reduction in cell viability by MTS assay; type: functional
HL-60 = assay: Cytotoxicity against human HL-60 cells; type: functional, cell-based
MDA-MB-435 = assay: Cytotoxicity against human MDA-MB-435 cells; type: functional, cell-based
SF-295 = assay: Cytotoxicity against human SF-295 cells; type: functional, cell-based
HepG2 [29] = assay: Anticancer activity against human HepG2 cells; type: functional, cell-based
PC-3 = assay: Anticancer activity against human PC-3 cells; type: functional, cell-based
K562 = assay: Anticancer activity against human K562 cells; type: functional, cell-based
HepG2 [30] = assay: Cytotoxicity against human HepG2 cells assessed as reduction in cell viability measured after 48 hrs by MTS assay; type: functional, cell-based; settings: HepG2, 48 h
HepG2 [31] = assay: Cytotoxicity against human HepG2 cells; type: functional, cell-based

**Q.** Which IC50 (MDA-MB-231 [1]) does the source give for `COc1ccc(CN2CCN(c3ccc(NC(=O)Cc4csc5nc(-c6ccc(Cl)cc6)cn45)cn3)CC2)cc1` here?
**A.** 1400 nM

**Q.** What about the inhibition [2] of the same molecule?
**A.** 5.72%

**Q.** What about the IC50 (HepG2 [3]) of the same molecule?
**A.** 22600 nM

**Q.** With `CNC(=O)c1cc(Oc2ccc(NC(=O)Nc3ccc(Cl)c(C(F)(F)F)c3)cc2)ccn1` [SORAFENIB] as the molecule, how does the IC50 [4] read?
**A.** 5600 nM

**Q.** What about the IC50 (HepG2 [3]) of the same molecule?
**A.** 5200 nM

**Q.** What does the source list for `O=c1[nH]cc(F)c(=O)[nH]1` [FLUOROURACIL]?
**A.** IC50 (MCF7 [5]): 5.5 µg/mL; Activity (A549 [6]): 57%

**Q.** Which IC50 (HT-29) does the source give for `CC(=O)C(C(C)=O)=C1SC=C(n2c(CC#N)nc3ccccc32)N1c1ccccc1` here?
**A.** 250 nM

**Q.** And the IC50 (MKN-45)?
**A.** 250 nM

**Q.** And the IC50 (NCI-H460 [7])?
**A.** 250 nM

**Q.** And the IC50 [8]?
**A.** 250 nM

**Q.** And the IC50 (SMMC-7721)?
**A.** 250 nM

**Q.** What about the IC50 (A549 [9]) of the same molecule?
**A.** 250 nM

**Q.** For `O=S(=O)(Nc1ccc(-c2csc(N/N=C/c3ccc(N(CCCl)CCCl)cc3)n2)cc1)c1ccc(C(F)(F)F)cc1`, which IC50 (MCF7 [10]) is on record?
**A.** 3.02 µg/mL (≈ 4.7 µM)

**Q.** What about the IC50 (MV4-11) of the same molecule?
**A.** 2170 nM

**Q.** What about the IC50 (HCT-116 [11]) of the same molecule?
**A.** 3.02 µg/mL

**Q.** With `Cc1cc(Cl)cc(C(=O)NC2CCCCC2)c1NC(=O)c1sc(-c2ccccc2Cl)nc1C(F)(F)F` as the molecule, how does the Activity (A549 [6]) read?
**A.** 48%

**Q.** For `C/C(=N\NC(=O)/C(C#N)=C1\SC=C(O)N1c1ccccc1)C1CC[C@@]2(C)[C@]3(C)CC=C4C[C@@H](O)CC[C@]4(C)[C@@]3(C)CC[C@]12C` (stereo partly specified), which GI50 (MCF7 [12]) is on record?
**A.** 40 nM

**Q.** What about the GI50 (NCI-H460 [13]) of the same molecule?
**A.** 90 nM

**Q.** With `CNc1nc(C)c(-c2nc3ccccc3c(=O)n2-c2ccc(Cl)cc2)s1` as the molecule, how does the IC [14] read?
**A.** 3.3 µM

**Q.** Which IC50 (HeLa [15]) does the source give for `CC(=O)Nc1nc2ccc(NS(=O)(=O)c3ccc(C4CCCCC4)cc3)cc2s1` here?
**A.** 44000 nM

**Q.** What about the IC50 (MCF7 [5]) of the same molecule?
**A.** 36000 nM

**Q.** What about the IC50 (MG-63) of the same molecule?
**A.** 34000 nM

**Q.** Which IC50 [16] does the source give for `C/C(=N\Nc1nc(-c2ccc(Cl)cc2)cs1)c1ccccn1` here?
**A.** > 30000 nM

**Q.** With `O=S1(=O)NCCN1CCNc1nccc(-c2c(-c3ccc(F)cc3)nc3sccn23)n1` as the molecule, how does the IC50 [4] read?
**A.** 1900 nM

**Q.** With `CC(=O)C(C(C)=O)=C1SC(n2nc(O)cc2N)=CN1c1ccccc1` as the molecule, how does the GI50 (SF-268 [17]) read?
**A.** 10 nM

**Q.** What does the source list for `O=C(NNc1nc(-c2ccc(Cl)cc2)cs1)N1N=C(c2ccccc2)CC1c1ccccc1` (stereo unspecified)?
**A.** IC50 (A549 [18]): 5000 nM; IC50 (MCF7 [19]): 5000 nM

**Q.** For `COC(=O)Nc1nc2cc(C(=O)c3cccs3)ccc2[nH]1` [NOCODAZOLE], which IC50 (A549 [20]) is on record?
**A.** 1810 nM

**Q.** Which IC50 (HCT-116 [21]) does the source give for `Nc1ccccc1C(=O)Nn1c(-c2ccc(Cl)cc2)cs/c1=N/c1ccc([N+](=O)[O-])cc1` here?
**A.** 5370 nM

**Q.** What about the IC50 (HeLa [22]) of the same molecule?
**A.** 5370 nM

**Q.** What about the IC50 (MCF7 [23]) of the same molecule?
**A.** 5370 nM

**Q.** And the IC50 (MDA-MB-231 [24])?
**A.** 5370 nM

**Q.** Which GI50 (HCC 2998) does the source give for `Cc1cc(-c2nc3cc(F)ccc3s2)ccc1N` here?
**A.** < 10 nM

**Q.** What about the GI50 (NCI-H226) of the same molecule?
**A.** < 10 nM

**Q.** What about the GI50 (NCI-H460 [7]) of the same molecule?
**A.** < 10 nM

**Q.** And the GI50 (IGROV-1)?
**A.** < 10 nM

**Q.** What about the GI50 (OVCAR-4) of the same molecule?
**A.** < 100 nM

**Q.** And the GI50 (MCF7 [5])?
**A.** < 100 nM

**Q.** And the GI50 (OVCAR-5)?
**A.** < 100 nM

**Q.** For `Cn1cc(-c2csc(-c3cn(C)c4ncccc34)n2)c2ccccc21`, which GI50 [25] is on record?
**A.** 30 nM

**Q.** With `C/C(=N\N=c1/scc(-c2ccc(Br)cc2)n1-c1ccccc1)C1CC[C@@]2(C)[C@]3(C)CC=C4C[C@@H](O)CC[C@]4(C)[C@@]3(C)CC[C@]12C` (stereo partly specified) as the molecule, how does the GI50 (SF-268 [26]) read?
**A.** 400 nM

**Q.** And the GI50 (NCI-H460 [27])?
**A.** 600 nM

**Q.** And the GI50 (MCF7 [28])?
**A.** 600 nM

**Q.** Which results are given for `CC1=CS/C(=C(/C#N)C(=O)N/N=C(\C)C2CC[C@@]3(C)[C@]4(C)CC=C5C[C@@H](O)CC[C@]5(C)[C@@]4(C)CC[C@]23C)N1c1ccccc1` (stereo partly specified)?
**A.** GI50 (MCF7 [12]): 20 nM; GI50 (NCI-H460 [13]): 10 nM

**Q.** For `O=c1c2c[nH]c3ccc(Br)cc3c-2nn1-c1nc2ccccc2s1`, which IC50 (HL-60) is on record?
**A.** < 5 µg/mL

**Q.** What about the IC50 (MDA-MB-435) of the same molecule?
**A.** < 5 µg/mL

**Q.** And the IC50 (SF-295)?
**A.** < 5 µg/mL

**Q.** Which results are given for `COc1cccc2c1C(=O)c1c(O)c3c(c(O)c1C2=O)C[C@@](O)(C(=O)CO)C[C@@H]3O[C@H]1C[C@H](N)[C@H](O)[C@H](C)O1` [DOXORUBICIN]?
**A.** IC50 (HepG2 [29]): 11600 nM; IC50 (SMMC-7721): 230 nM; IC50 (PC-3): 912 nM; IC50 (HCT-116 [11]): 180 nM; IC50 (K562): 2300 nM; IC50 (HepG2 [30]): 720 nM; CC50 (HepG2 [31]): 200 nM

Reference: ChEMBL document CHEMBL5244229, “Thiazole-containing compounds as therapeutic targets for cancer therapy” (Eur J Med Chem, 2020)
